# Test results taken from patent US9249131B2, “Modulators of ATP-binding cassette transporters” (Vertex Pharmaceuticals Incorporated, priority 2003, dated 2016).
# Molecular target: T1, ΔF508-CFTR (Homo sapiens, UniProt P13569, DEL508-508)
# T1 construct: expressed in transfected cells; host or cells: NIH3T3 mouse fibroblasts stably expressing ΔF508-CFTR for the optical, whole-cell and single-channel assays; Fisher rat epithelial (FRT) cells for Ussing chamber follow-up
# Test: Assays for ΔF508-CFTR correction and potentiator properties (membrane potential optical and electrophysiological methods)
# Format: cell-based
# Details: CFTR modulation; for % Activity: % Efficacy; for EC50: tested using the above methods
# Text: Assays for Detecting and Measuring ΔF508-CFTR Correction and Potentiator Properties of Compounds
# A) Membrane Potential Optical Methods for Assaying ΔF508-CFTR Modulation Properties of Compounds
# The optical membrane potential assay utilized voltage-sensitive FRET sensors described by Gonzalez and Tsien (See, Gonzales, J. E. and R. Y. Tsien (1995) “Voltage sensing by fluorescence resonance energy transfer in single cells” Biophys J 69 (4): 1272-80, and Gonzalez, J. E. and R. Y. Tsien (1997) “Improved indicators of cell membrane potential that use fluorescence resonance energy transfer” Chem Biol 4 (4): 269-77) in combination with instrumentation for measuring fluorescence changes such as the Voltage/Ion Probe Reader (VIPR) (See, Gonzalez, J. E., K. Oades, et al. (1999) “Cell-based assays and instrumentation for screening ion-channel targets” Drug Discov Today 4 (9): 431-439).
# These voltage sensitive assays are based on the change in fluorescence resonant energy transfer (FRET) between the membrane-soluble, voltage-sensitive dye, DiSBAC2 (3), and a fluorescent phospholipid, CC2-DMPE, which is attached to the outer leaflet of the plasma membrane and acts as a FRET donor. Changes in membrane potential (Vm) cause the negatively charged DiSBAC2(3) to redistribute across the plasma membrane and the amount of energy transfer from CC2-DMPE changes accordingly. The changes in fluorescence emission were monitored using VIPR™ II, which is an integrated liquid handler and fluorescent detector designed to conduct cell-based screens in 96- or 384-well microtiter plates.
# To identify small molecules that correct the trafficking defect associated with ΔF508-CFTR; a single-addition HTS assay format was developed. The cells were incubated in serum-free medium for 16 hrs at 37° C. in the presence or absence (negative control) of test compound. As a positive control, cells plated in 384-well plates were incubated for 16 hrs at 27° C. to “temperature-correct” ΔF508-CFTR. The cells were subsequently rinsed 3× with Krebs Ringers solution and loaded with the voltage-sensitive dyes. To activate ΔF508-CFTR, […] and the CFTR potentiator, genistein ([…]), were added along with Cl^−-free medium to each well. The addition of Cl^−-free medium promoted Cl^− efflux in response to ΔF508-CFTR activation and the resulting membrane depolarization was optically monitored using the FRET-based voltage-sensor dyes.
# To identify potentiators of ΔF508-CFTR, a double-addition HTS assay format was developed. During the first addition, a Cl^−-free medium with or without test compound was added to each well. After 22 sec, a second addition of Cl^−-free medium containing 2-10 µM forskolin was added to activate ΔF508-CFTR. The extracellular Cl^− concentration following both additions was 28 mM, which promoted Cl^− efflux in response to ΔF508-CFTR activation and the resulting membrane depolarization was optically monitored using the FRET-based voltage-sensor dyes.
# • Bath Solution #1: (in mM) NaCl 160, KCl 4.5, CaCl2 2, MgCl2 1, HEPES 10, pH 7.4 with NaOH. • Chloride-free bath solution: Chloride salts in Bath Solution #1 are substituted with gluconate salts. • CC2-DMPE: Prepared as a 10 mM stock solution in DMSO and stored at −20° C. • DiSBAC2(3): Prepared as a 10 mM stock in DMSO and stored at −20° C. Cell Culture
# NIH3T3 mouse fibroblasts stably expressing ΔF508-CFTR are used for optical measurements of membrane potential. The cells are maintained at 37° C. in 5% CO2 and 90% humidity in Dulbecco's modified Eagle's medium supplemented with 2 mM glutamine, 10% fetal bovine serum, 1×NEAA, β-ME, 1×pen/strep, and 25 mM HEPES in 175 cm^2 culture flasks. For all optical assays, the cells were seeded at 30,000/well in 384-well matrigel-coated plates and cultured for 2 hrs at 37° C. before culturing at 27° C. for 24 hrs. for the potentiator assay. For the correction assays, the cells are cultured at 27° C. or 37° C. with and without compounds for 16-24 hours.
# T1 sequence (P13569 with tags, fused parts or gaps DEL508-508): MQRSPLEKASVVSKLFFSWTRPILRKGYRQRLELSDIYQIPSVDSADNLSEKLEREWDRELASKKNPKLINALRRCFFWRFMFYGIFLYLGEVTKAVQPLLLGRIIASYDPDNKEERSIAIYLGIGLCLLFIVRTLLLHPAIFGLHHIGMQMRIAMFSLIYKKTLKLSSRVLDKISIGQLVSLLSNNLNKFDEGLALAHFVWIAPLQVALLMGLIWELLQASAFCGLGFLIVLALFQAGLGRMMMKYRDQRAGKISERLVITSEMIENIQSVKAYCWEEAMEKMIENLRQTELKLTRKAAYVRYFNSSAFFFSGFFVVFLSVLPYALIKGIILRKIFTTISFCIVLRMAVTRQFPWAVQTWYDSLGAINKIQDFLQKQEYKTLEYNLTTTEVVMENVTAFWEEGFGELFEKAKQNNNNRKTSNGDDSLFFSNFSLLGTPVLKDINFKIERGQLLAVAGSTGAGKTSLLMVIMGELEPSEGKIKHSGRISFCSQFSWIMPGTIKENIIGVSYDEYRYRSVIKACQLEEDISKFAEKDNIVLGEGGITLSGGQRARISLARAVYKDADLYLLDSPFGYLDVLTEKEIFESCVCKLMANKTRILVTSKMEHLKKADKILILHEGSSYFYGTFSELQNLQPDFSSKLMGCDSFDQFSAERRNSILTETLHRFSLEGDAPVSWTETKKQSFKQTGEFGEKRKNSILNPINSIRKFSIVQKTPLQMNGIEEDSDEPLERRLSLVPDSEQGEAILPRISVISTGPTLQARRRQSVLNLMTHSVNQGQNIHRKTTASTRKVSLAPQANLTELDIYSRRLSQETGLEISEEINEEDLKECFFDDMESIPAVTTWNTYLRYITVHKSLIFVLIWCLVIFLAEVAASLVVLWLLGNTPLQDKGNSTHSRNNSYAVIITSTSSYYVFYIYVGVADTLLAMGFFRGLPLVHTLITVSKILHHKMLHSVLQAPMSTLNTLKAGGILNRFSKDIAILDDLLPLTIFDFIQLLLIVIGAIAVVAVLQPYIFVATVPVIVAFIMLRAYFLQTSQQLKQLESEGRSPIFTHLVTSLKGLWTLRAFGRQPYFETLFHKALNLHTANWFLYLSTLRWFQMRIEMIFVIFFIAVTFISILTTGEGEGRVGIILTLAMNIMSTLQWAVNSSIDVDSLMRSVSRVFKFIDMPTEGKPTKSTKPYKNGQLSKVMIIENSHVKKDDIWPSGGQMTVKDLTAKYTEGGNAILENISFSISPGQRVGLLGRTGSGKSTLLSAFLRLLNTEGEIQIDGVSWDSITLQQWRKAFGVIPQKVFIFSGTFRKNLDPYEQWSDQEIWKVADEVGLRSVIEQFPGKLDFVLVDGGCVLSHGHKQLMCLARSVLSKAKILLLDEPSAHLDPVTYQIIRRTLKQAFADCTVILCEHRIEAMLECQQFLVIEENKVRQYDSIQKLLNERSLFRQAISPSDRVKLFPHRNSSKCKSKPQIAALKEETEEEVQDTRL
Compound,% Activity,EC50
COc1ccccc1-c1csc(NC(=O)c2cccc(Cl)c2)n1 [compound 227],++ (“++” means between 25% to 100%),10 to 25 µM
CCC(C(=O)Nc1ncc(Cc2ccccc2C#N)s1)c1ccccc1 (stereo not shown) [compound 258],++ (“++” means between 25% to 100%),10 to 25 µM
Cc1cccc(Cc2cnc(NC(=O)c3ccccc3Cl)s2)c1 [compound 54],++ (“++” means between 25% to 100%),10 to 25 µM
O=C(Nc1nc(-c2ccc3c(c2)OCO3)cs1)c1ccccc1 [compound 164],++ (“++” means between 25% to 100%),10 to 25 µM
O=C(Nc1ncc(Cc2ccc(Cl)cc2)s1)c1ccccc1Cl [compound 33],++ (“++” means between 25% to 100%),10 to 25 µM
COC(C(=O)Nc1ncc(Cc2ccccc2Cl)s1)c1ccccc1 (stereo not shown) [compound 216],++ (“++” means between 25% to 100%),10 to 25 µM
O=C(CN1CCCCC1)Nc1ncc(Cc2cccc3ccccc23)s1 [compound 65],++ (“++” means between 25% to 100%),10 to 25 µM
Cc1ccc(C(=O)Nc2nc(-c3ccccc3)cs2)cc1 [compound 67],++ (“++” means between 25% to 100%),10 to 25 µM
COc1ccccc1-c1csc(NC(=O)c2ccccc2)n1 [compound 69],+++ (“+++” means >100%),10 to 25 µM
O=C(Nc1nc(-c2ccccc2)c(-c2ccccc2)s1)c1ccc(Cl)c(Cl)c1 [compound 73],++ (“++” means between 25% to 100%),10 to 25 µM
O=C(Nc1ncc(Cc2ccccc2Cl)o1)C(c1ccccc1)C1CCCCC1 (stereo not shown) [compound 186],++ (“++” means between 25% to 100%),10 to 25 µM
COc1cccc(-c2csc(NC(=O)c3cccc(Cl)c3)n2)c1 [compound 232],++ (“++” means between 25% to 100%),10 to 25 µM
CCCCC(=O)Nc1nc(-c2cc(C)ccc2C)cs1 [compound 3],++ (“++” means between 25% to 100%),10 to 25 µM
CCC(C(=O)Nc1nc2ccc(S(C)(=O)=O)cc2s1)c1ccccc1 (stereo not shown) [compound 264],++ (“++” means between 25% to 100%),25 to 60 µM
O=C(Cc1ccccc1)Nc1ncc(Cc2ccccc2Cl)o1 [compound 194],++ (“++” means between 25% to 100%),25 to 60 µM
COc1ccc(C(=O)Nc2nc(-c3cccc(OC)c3)cs2)cc1 [compound 84],++ (“++” means between 25% to 100%),10 to 25 µM
O=C(Nc1nc(-c2ccccc2)cs1)c1ccccc1Cl [compound 77],++ (“++” means between 25% to 100%),10 to 25 µM
CC(C)C(C(=O)Nc1nc(-c2ccncc2)cs1)c1ccccc1 (stereo not shown) [compound 35],++ (“++” means between 25% to 100%),10 to 25 µM
CN(C)C(Cc1ccccc1)C(=O)Nc1ncc(Cc2ccccc2Cl)s1 (stereo not shown) [compound 272],+++ (“+++” means >100%),< 10 µM
CCOC(=O)Cc1csc(NC(=O)C(c2ccccc2)c2ccccc2)n1 [compound 281],++ (“++” means between 25% to 100%),10 to 25 µM
CCOC(=O)C1CCCCN1C(C(=O)Nc1ncc(Cc2ccccc2Cl)s1)c1ccccc1 (stereo not shown) [compound 253],++ (“++” means between 25% to 100%),25 to 60 µM

# Now from value to molecule:
% Activity,EC50,Compound
++ (“++” means between 25% to 100%),< 10 µM,CCC(C(=O)Nc1nc(-c2ccccc2)cs1)c1ccccc1 (stereo not shown) [compound 167]
++ (“++” means between 25% to 100%),< 10 µM,CCOC(=O)C1CCCN(C(C(=O)Nc2ncc(Cc3ccccc3Cl)s2)c2ccccc2)C1 (stereo not shown) [compound 245]
++ (“++” means between 25% to 100%),< 10 µM,CC(C(=O)Nc1nc(-c2ccccc2)c(-c2ccccc2)s1)N1CCN(S(=O)(=O)c2ccc(Cl)cc2)CC1 (stereo not shown) [compound 197]
++ (“++” means between 25% to 100%),< 10 µM,CCC(C(=O)Nc1nc(-c2ccccc2)c(-c2ccccc2)s1)c1ccccc1 (stereo not shown) [compound 173]
++ (“++” means between 25% to 100%),< 10 µM,Cc1cccc2sc(NC(=O)c3ccccc3Cl)nc12 [compound 41]
+++ (“+++” means >100%),< 10 µM,COC(=O)c1ccccc1C(=O)Nc1nc(-c2ccccc2)c(-c2ccccc2)s1 [compound 178]
++ (“++” means between 25% to 100%),< 10 µM,O=C(Nc1ncc(Cc2cc(Cl)ccc2Cl)s1)C(c1ccccc1)c1ccccc1 [compound 57]
++ (“++” means between 25% to 100%),< 10 µM,O=C(Nc1ncc(Cc2ccccc2Cl)s1)C1CC1 [compound 207]
++ (“++” means between 25% to 100%),< 10 µM,CCC(C(=O)Nc1ncc(Cc2ccc(Cl)cc2)s1)c1ccccc1 (stereo not shown) [compound 120]
+++ (“+++” means >100%),< 10 µM,CC1CCCN1C(C(=O)Nc1ncc(Cc2ccccc2Cl)s1)c1ccccc1 (stereo not shown) [compound 242]
++ (“++” means between 25% to 100%),< 10 µM,CCC(C)C(C(=O)Nc1ncc(Cc2ccccc2C#N)s1)c1ccccc1 (stereo not shown) [compound 259]
++ (“++” means between 25% to 100%),< 10 µM,Cc1ccc(S(=O)(=O)N2CCN(C(C)C(=O)Nc3nc(-c4ccccc4)c(-c4ccccc4)s3)CC2)cc1 (stereo not shown) [compound 198]
++ (“++” means between 25% to 100%),< 10 µM,CCC(C(=O)Nc1nc2ccc(OC)cc2s1)c1ccccc1 (stereo not shown) [compound 266]
+++ (“+++” means >100%),< 10 µM,O=C(Nc1nc2c(s1)CCCC2)c1cccc(Br)c1 [compound 8]
++ (“++” means between 25% to 100%),< 10 µM,COc1ccc(-c2ccc(C(=O)Nc3nc4ccccc4s3)cc2)cc1 [compound 14]
++ (“++” means between 25% to 100%),< 10 µM,O=C(Nc1ncc(Cc2cccc(Cl)c2)o1)C(c1ccccc1)C1CCCC1 (stereo not shown) [compound 156]
++ (“++” means between 25% to 100%),< 10 µM,O=C(Nc1ncc(Cc2ccccc2Cl)s1)C(NC1CCCC1)c1ccccc1 (stereo not shown) [compound 250]
+++ (“+++” means >100%),< 10 µM,CCC(C)C(C(=O)Nc1ncc(Cc2ccc(Cl)cc2)s1)c1ccccc1 (stereo not shown) [compound 121]
+++ (“+++” means >100%),< 10 µM,O=C(Nc1ncc(Cc2cc(Cl)ccc2Cl)s1)C1CCCCC1 [compound 30]
++ (“++” means between 25% to 100%),< 10 µM,CCCc1nc(NC(=O)C(c2ccccc2)c2ccccc2)sc1C(=O)OCC [compound 287]
++ (“++” means between 25% to 100%),< 10 µM,CCC(C(=O)Nc1ncc(Cc2cccc(OC)c2)s1)c1ccccc1 (stereo not shown) [compound 284]
++ (“++” means between 25% to 100%),< 10 µM,CCN(C)C(C(=O)Nc1ncc(Cc2ccccc2Cl)s1)c1ccccc1 (stereo not shown) [compound 239]
+++ (“+++” means >100%),< 10 µM,COc1ccc(C(=O)Nc2nc(-c3ccccc3)c(-c3ccccc3)s2)cc1 [compound 72]
